According to US20240024446A1 (priority 2020, published 2024):
Several values for one entry are separate records, joined by “and”; a condition that tells them apart may be missing. Equal entries are not always repeated.

Experiments:
[1] = format: in vivo; settings: pig plasma; DON bolus 0.05 mg/kg at 11 weeks of age; DON-KLH = pigs immunised IM at 3 and 6 weeks, DON = control pigs
Procedure: Ten 3 week old pigs were used in the study, divided over 2 groups of 5 pigs each. The pigs in Group 1 were immunised IM twice at 3 and 6 weeks of age with DON-KLH (Test Article 1; example1). Group 2 served as a control and only received a control fluid. At the age of 11 weeks the animals were each administered DON (Fermentek, Israel) via a bolus at a dose of 0.05 mg/kg which (based on the daily feed intake) resembled a contamination level of 1 mg/kg feed. Blood samples of the pigs were taken juts before DON administration and 0.25, 0.5, 0.75, 1, 1.5, 2, 3, 4, 6, 8, and 12 h post DON administration.
Plasma analysis of unbound DON was done using a validated LC-MS/MS method on an Acquity® UPLC system coupled to a Xevo® TQ-S MS instrument (Waters, Zellik, Belgium). The lower limit of quantification of DON in pig plasma using this method is 0.1 ng/ml.
Toxicokinetic modeling of the plasma concentration-time profiles of DON was done by noncompartmental analysis (Phoenix, Pharsight Corporation, USA). Following parameters were calculated: area under the curve from time zero to infinite (AUC0→∞), maximal plasma concentration (Cmax), and time at maximal plasma concentration (tmax).

C6 cells [2] = test: In vitro potency test/neutralization assay with fish sera on C6 cells; format: cell-based, rats
Procedure: In line with Example 7, an in vitro potency test/neutralization assay was performed with the sera raised as described in Example 8. For this, C6 cells were seeded at 2.0*10^4 cells/ml, 100 μl per well, and grown at 37° C., 5% CO2 for 3 days. Cells were incubated for 48 h, with a combination of 20 μg/ml AFB1 and 32× diluted serum derived from fish vaccinated with AFB1-KLH in GNE or vaccinated with a placebo. Percentages of live cells were determined by microscopical evaluation.

C6 cells [3] = format: cell-based, rats

| Structure (SMILES) | AUC0→∞ of unbound DON [1] | Cmax of unbound DON [1] | Percentage live cells after incubation with AFB1 and diluted fish serum (C6 cells [2]) | concentration from which toxic on C6 cells (dose response curve) (C6 cells [3]) |
| --- | --- | --- | --- | --- |
| CC1=C[C@H]2O[C@@H]3[C@H](O)C[C@](C)([C@@]2(CO)[C@H](O)C1=O)[C@]31CO1 [DON, deoxynivalenol] | 187 ± 33 | 30.8 ± 2.5 |  |  |
| COc1cc2c(c3oc(=O)c4c(c13)CCC4=O)[C@@H]1C=CO[C@@H]1O2 [AFB1, Aflatoxin B1] |  |  | 95% and 65% | ≥ 20 µg/mL |
